Measured values from US10723741B1, “DNA polymerase IIIC inhibitors and use thereof” (Acurx Pharmaceuticals, LLC, priority 2018, dated 2020).
In brackets after ≈: the same amount, converted by molar mass. Where two headings read alike, the source gives them in different places.

Columns and labels:
Type in all cases: cell-based
[1] = tested on: Streptococcus pneumoniae ATCC 49619; experiment: Broth microdilution MIC, S. pneumoniae ATCC 49619; conditions: ATCC49619, broth microdilution, 37° C., 20 hours, read-out: MIC S. pneumoniae ATCC 49619
Procedure, shortened: (§1)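 Broth microdilution in strain-specific test medium with ~5.0×10^5 cfu/ml inoculum, 1% DMSO and two-fold compound dilutions from 64 to 0.0625 μg/ml. Plates were held 20 hours at 37° C in ambient air. S. pneumoniae colonies were grown beforehand on blood agar in 5% CO2.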

[2] = tested on: Enterococcus faecalis ATCC 29212; experiment: Broth microdilution MIC, E. faecalis ATCC 29212; conditions: ATCC29212, broth microdilution, 37° C., 20 hours, read-out: MIC E. faecalis ATCC 29212
Procedure, shortened: as §1

[3] = tested on: Enterococcus faecium ATCC 700221 (VRE); experiment: Broth microdilution MIC, E. faecium ATCC 700221 (VRE); conditions: Enterococcus faecium, broth microdilution, 37° C., 20 hours
Procedure, shortened: as §1

[4] = tested on: Escherichia coli ATCC 25922; experiment: Broth microdilution MIC, E. coli ATCC 25922 (MHIIB w & w/o 4 mM EDTA); conditions: broth microdilution, 37° C., 20 hours; for MIC: Escherichia coli, ATCC25922, without EDTA, read-out: MIC E. coli ATCC 25922; for MIC E. coli ATCC 25922 + 4 mM EDTA: with 4 mM EDTA
Procedure, shortened: as §1

[5] = read-out: MIC E. faecium ATCC 700221 (VRE)
[6] = MHIIB, read-out: MIC against E. faecium ATCC 700221 (VRE)

Row | SMILES | MIC [1] | MIC [2] | MIC [3, 5] | MIC [3, 6] | MIC [4] | MIC E. coli ATCC 25922 + 4 mM EDTA [4]
1 | O=C(O)CCC(=O)N1CCC(n2ncc3nc(NCc4ccc(Cl)c(Cl)c4)[nH]c(=O)c32)CC1 [Compound 273, 4-(4-(5-((3,4-dichlorobenzyl)amino)-7-oxo-6,7-dihydro-1H-pyrazolo[4,3-d]pyrimidin-1-yl)piperidin-1-yl)-4-oxobutanoic Acid] | 32 µg/mL (≈ 64.9 µM) | 64 µg/mL (≈ 130 µM) | 32 µg/mL (≈ 64.9 µM) |  | > 64 µg/mL | >64 µg/mL
2 | O=c1[nH]c(NCc2ccc(Cl)c(Cl)c2)nc2cnn(C3CCCC3)c12 [Compound 214, 1-cyclopentyl-5-((3,4-dichlorobenzyl)amino)-1H-pyrazolo[4,3-d]pyrimidin-7(6H)-one] | 8 µg/mL (≈ 21.1 µM) | 2 µg/mL (≈ 5.29 µM) | 1 µg/mL (≈ 2.64 µM) | ≤ 1 µg/mL | > 64 µg/mL | >64 µg/mL
3 | Cc1nn(C)c2c(=O)[nH]c(NCc3ccc(Cl)c(Cl)c3)nc12 [Compound 44, 5-((3,4-dichlorobenzyl)amino)-1,3-dimethyl-1H-pyrazolo[4,3-d]pyrimidin-7(6H)-one] | 4 µg/mL (≈ 11.8 µM) | 4 µg/mL (≈ 11.8 µM) | 4 µg/mL (≈ 11.8 µM) | ≤ 1 µg/mL | > 64 µg/mL | >64 µg/mL
4 | O=c1[nH]c(NCc2ccc(Cl)c(Cl)c2)nc2cn[nH]c12 [Compound 77, 5-((3,4-dichlorobenzyl)amino)-1H-pyrazolo[4,3-d]pyrimidin-7(6H)-one] | 4 µg/mL (≈ 12.9 µM) | 8 µg/mL (≈ 25.8 µM) | 4 µg/mL (≈ 12.9 µM) |  | > 64 µg/mL | >64 µg/mL
5 | O=C([C@@H](O)[C@H](O)CO)N1CCC(n2ncc3nc(NCc4ccc(Cl)c(Cl)c4)[nH]c(=O)c32)CC1 [Compound 276, 5-((3,4-dichlorobenzyl)amino)-1-(1-((2S,3R)-2,3,4-trihydroxybutanoyl)piperidin-4-yl)-1H-pyrazolo[4,3-d]pyrimidin-7(6H)-one] | 8 µg/mL (≈ 15.6 µM) | 64 µg/mL (≈ 125 µM) | 32 µg/mL (≈ 62.6 µM) |  | > 64 µg/mL | >64 µg/mL
6 | Cl.O=c1[nH]c(NCc2ccc(Cl)c(Cl)c2)nc2cnn(C3CCN(C4CCOCC4)CC3)c12 [Compound 242, 5-((3,4-dichlorobenzyl)amino)-1-(1-(tetrahydro-2H-pyran-4-yl)piperidin-4-yl)-1H-pyrazolo[4,3-d]pyrimidin-7(6H)-one hydrochloride] | 2 µg/mL | 4 µg/mL | 2 µg/mL |  | > 64 µg/mL | 32 µg/mL
7 | O=c1[nH]c(NCc2ccc(Cl)c(Cl)c2)nc2cnn(-c3ccccc3)c12 [Compound 212, 5-[(3,4-dichlorophenyl)methylamino]-1-phenyl-6H-pyrazolo[4,3-d]pyrimidin-7-one] | 8 µg/mL (≈ 20.7 µM) | > 64 µg/mL | 1 µg/mL (≈ 2.59 µM) | ≤ 1 µg/mL | > 64 µg/mL | >64 µg/mL
8 | Cl.O=c1[nH]c(NCc2ccc(Cl)c(Cl)c2)nc2cnn(CC3CNCCO3)c12 (stereo not shown) [Compound 149, 5-((3,4-dichlorobenzyl)amino)-1-(morpholin-2-ylmethyl)-1H-pyrazolo[4,3-d]pyrimidin-7(6H)-one hydrochloride] | 4 µg/mL | 16 µg/mL | 8 µg/mL |  | > 64 µg/mL | 64 µg/mL

Now from value to compound:

Row | MIC [1] | MIC [2] | MIC [3, 5] | MIC [3, 6] | MIC [4] | MIC E. coli ATCC 25922 + 4 mM EDTA [4] | SMILES
9 | 4 µg/mL (≈ 11.4 µM) | 2 µg/mL (≈ 5.71 µM) | 1 µg/mL (≈ 2.86 µM) | ≤ 1 µg/mL | > 64 µg/mL | >64 µg/mL | O=c1[nH]c(NCc2ccc(Cl)c(Cl)c2)nc2cnn(C3CC3)c12 [Compound 213, 1-Cyclopropyl-5-((3,4-dichlorobenzyl)amino)-1H-pyrazolo[4,3-d]pyrimidin-7(6H)-one]
10 | 4 µg/mL (≈ 12.3 µM) | 2 µg/mL (≈ 6.17 µM) | 1 µg/mL (≈ 3.08 µM) | ≤ 1 µg/mL | > 64 µg/mL | >64 µg/mL | Cn1ncc2nc(NCc3ccc(Cl)c(Cl)c3)[nH]c(=O)c21 [Compound 2, 5-((3,4-Dichlorobenzyl)amino)-1-methyl-1H-pyrazolo[4,3-d]pyrimidin-7(6H)-one]
11 | 2 µg/mL (≈ 4.71 µM) | 2 µg/mL (≈ 4.71 µM) | 1 µg/mL (≈ 2.36 µM) | ≤ 1 µg/mL | > 64 µg/mL | >64 µg/mL | COC(=O)CCCCn1ncc2nc(NCc3ccc(Cl)c(Cl)c3)[nH]c(=O)c21 [Compound 218, methyl 5-[5-[(3,4-dichlorophenyl)methylamino]-7-oxo-6H-pyrazolo[4,3-d]pyrimidin-1-yl]pentanoate]
12 | 4 µg/mL | 16 µg/mL | 8 µg/mL |  | > 64 µg/mL | >64 µg/mL | CN(C)CCOCCn1ncc2nc(NCc3ccc(Cl)c(Cl)c3)[nH]c(=O)c21.Cl [Compound 211, 5-((3,4-dichlorobenzyl)amino)-1-(2-(2-(dimethylamino)ethoxy)ethyl)-1H-pyrazolo[4,3-d]pyrimidin-7(6H)-one hydrochloride]
13 | 2 µg/mL (≈ 5.43 µM) | 4 µg/mL (≈ 10.9 µM) | 2 µg/mL (≈ 5.43 µM) |  | > 64 µg/mL | >64 µg/mL | COCCn1ncc2nc(NCc3ccc(Cl)c(Cl)c3)[nH]c(=O)c21 [Compound 126, 5-((3,4-dichlorobenzyl)amino)-1-(2-methoxyethyl)-1H-pyrazolo[4,3-d]pyrimidin-7(6H)-one]
14 | 16 µg/mL | 64 µg/mL | 64 µg/mL |  | > 64 µg/mL | >64 µg/mL | Cl.Cl.O=c1[nH]c(NCc2ccc(Cl)c(Cl)c2)nc2cnn(CCOCCN3CCNCC3)c12 [Compound 167, 5-[(3,4-dichlorophenyl)methylamino]-1-[2-(2-piperazin-1-ylethoxy)ethyl]-6H-pyrazolo[4,3-d]pyrimidin-7-one]
15 | 2 µg/mL (≈ 5.71 µM) | 2 µg/mL (≈ 5.71 µM) | 0.5 µg/mL (≈ 1.43 µM) | ≤ 1 µg/mL | > 64 µg/mL | >64 µg/mL | C=CCn1ncc2nc(NCc3ccc(Cl)c(Cl)c3)[nH]c(=O)c21 [Compound 56, 1-allyl-5-((3,4-dichlorobenzyl)amino)-1H-pyrazolo[4,3-d]pyrimidin-7(6H)-one]
